Patent publication US6337341B1 (priority 1996, dated 2002)

Row | melting point [°C] | Structure (SMILES)
1 | > 250 | Cc1nnsc1CN.Cl [Compound No. 220, 5-aminomethyl-4-methyl-1,2,3-thiadiazole hydrochloride]
2 | 118 | Cc1nnsc1CS(=O)(=O)c1ccccc1
3 | 124 | COC(=O)c1csc(-c2snnc2-c2ccccc2)n1
4 | 182 | Cc1nnsc1-c1nnc(S)o1 [Compound No. 102, 5-(5-mercapto-1,3,4-oxadiazol-2-yl)-4-methyl-1,2,3-thiadiazole]
5 | 70 | COC(=O)/C=C/c1snnc1C [Compound No. 338, methyl (E)-3-(4-methyl-1,2,3-thiadiazol-5-yl)-2-propenate]
6 | 80 to 85 | COC(=O)/C=C\c1snnc1C [Compound No. 341, methyl (Z)-3-(4-methyl-1,2,3-thiadiazol-5-yl)-2-propenate]
7 | 65 | CSc1nnc(-c2snnc2C)o1
